Laboratory results from PubChem BioAssay AID2060892 (Molecular Pharmacology Branch, DTP, NCI, 2025).

System: HOP-62 complex spheroids with HUVEC/MSC, viability
Assay: Anticancer human tumor HOP-62 cell line growth inhibition [RAS];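 further: spheroids exposed to agents for seven days before readout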;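 on viability, T/C: 100% = DMSO vehicle control viability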
Conditions: for IC50: curve of first compound; for viability, T/C: stronger effect = lower value
Description: RAS pathway inhibitors in Combinations in Complex Spheroids
A high-throughput screen of multi-cell type tumor spheroids was designed to identify active combinations of RAS pathway inhibitors and targeted small molecules. Complex spheroids include a stromal component modeled by human endothelial cells (HUVEC) and fibroblasts modeled by human mesenchymal stem cells (MSCs). The concentration ranges selected for each drug and investigational agent were based upon clinically achievable concentrations if the clinical Cmax of the agent was known.
Compounds. The drugs and investigational agents: abemaciclib (NSC768073), cobimetinib (NSC768068), divarasib (GDC6063, NSC841802), docetaxel (NSC628503), GDC-1971 (RLY-1971, NSC841576), gemcitabine (NSC613327), inavolisib (NSC800729), ipatasertib (NSC767898), KB-0742 (NSC834161), MRTX-1133 (NSC836407), osimertinib (NSC779217), RMC-4630 (NSC839698), RMC-6236 (NSC851965), RMC-6291 (NSC852671), Ro-3306 (NSC812927), sapanisertib (NSC764658), SN-38 (NSC673596), staurosporine (NSC755774), SY5609 (NSC837396), and tovorafenib (DAY101, NSC766906), were obtained from the National Cancer Institute (NCI) Developmental Therapeutics Program Chemical Repository. The FDA-approved anticancer drug set is available from the NCI Developmental Therapeutics Program. […] The stock solutions were prepared in dimethyl sulfoxide (DMSO, Sigma-Aldrich, St. Louis, MO, cat. D2650) at 800-fold the tested concentration and stored at -70 degrees C prior to their use. All drugs and investigational agents were tested over a range starting from a high concentration at or near the clinical Cmax and decreasing in half-log increments. If the clinical Cmax for an agent had not been determined, the highest concentration tested was 10 microM.
Cell Culture. All cells were maintained in an incubator at 37 degrees C and 5% CO2 with 95% humidity. The PDC lines were cultured according to standard operating procedures established by the NCI PDMR. All PDCs were thawed and cultured in Matrigel-coated flasks prepared with a working solution of 1X Ham's F-12 nutrient mix, without supplementation (Invitrogen, Waltham, MA, cat. 11765054), 100 U/mL penicillin-streptomycin (Invitrogen, cat. 15140122), and 2.5% Matrigel (Corning Inc., Corning, NY, cat. 354248) for the first three passages. The 362531-283-R-J2-PDC and 782815-120-R-J1-PDC lines were cultured in 6C/Colon 1B media, which includes advanced DMEM/F-12 (Thermo Fisher Scientific, cat. 12634028), 10 mM HEPES (Thermo Fisher Scientific, cat. 15630080), 1X GlutaMAX supplement (Thermo Fisher Scientific, cat. 35050061), 0.1 mg/mL primocin (InvivoGen, San Diego, CA, cat. ant-pm-2), 10% defined fetal bovine serum, heat inactivated (HyClone Laboratories Inc., Logan, UT, cat. SH30070.03HI), 50% L-WRN conditioned media (ATCC, cat. CRL-3276), 1.25 mM N-Acetyl-L-cysteine (Sigma-Aldrich, cat. A9165), 10 mM nicotinamide (Sigma-Aldrich, cat. N0636), 1X B-27 supplement (Thermo Fisher Scientific, cat. 17504044), 1X N-2 supplement (Thermo Fisher Scientific, cat. 17502048), 50 ng/mL human EGF (Thermo Fisher Scientific, cat. PHG0311), and 10 microM Y-27632 dihydrochloride (Tocris Bioscience, cat. 1254). The K12877-001-R-J1-PDC line was cultured in 6I media, which includes all 6C/Colon 1B media plus 10 ng/mL human FGF-10 (PeproTech, cat. 100-26), 1 ng/mL human FGF-2 (PeproTech, cat. 100-18B), 1 µM prostaglandin E2 (Tocris Bioscience, cat. 2296), […] hydrocortisone (Sigma-Aldrich, cat. H4001), and […] bovine insulin (Sigma-Aldrich, cat. I6634). The K86415-001-R-J1-PDC line was cultured in 6D media, which includes all 6C/Colon 1B media components minus the L-WRN conditioned media. The 485176-168-R4-J1-PDC was cultured in PANC media, which includes all 6C/Colon 1B media plus 100 ng/mL human FGF-10 (PeproTech, cat. 100-26), 500 nM SB-431542 (Selleckchem, cat. S1067), and 10 nM gastrin (Tocris Bioscience, cat. 3006). […]

[1] = second compound 0.0316 µM, first compound 0.0316 µM
[2] = second compound 0.0316 µM, first compound 0.1 µM
[3] = second compound 0.0316 µM, first compound 0.316 µM
[4] = second compound 0.0316 µM, first compound 1 µM
[5] = second compound 0.0316 µM, first compound 3.16 µM
[6] = second compound 0.0316 µM, first compound 10 µM
[7] = second compound 0.1 µM, first compound 0.0316 µM
[8] = second compound 0.1 µM, first compound 0.1 µM
[9] = second compound 0.1 µM, first compound 0.316 µM
[10] = second compound 0.1 µM, first compound 1 µM
[11] = second compound 0.1 µM, first compound 3.16 µM
[12] = second compound 0.1 µM, first compound 10 µM
[13] = second compound 0.316 µM, first compound 0.0316 µM
[14] = second compound 0.316 µM, first compound 0.1 µM
[15] = second compound 0.316 µM, first compound 0.316 µM
[16] = second compound 0.316 µM, first compound 1 µM
[17] = second compound 0.316 µM, first compound 3.16 µM
[18] = second compound 0.316 µM, first compound 10 µM
[19] = second compound 1 µM, first compound 0.0316 µM
[20] = second compound 1 µM, first compound 0.1 µM
[21] = second compound 1 µM, first compound 0.316 µM
[22] = second compound 1 µM, first compound 1 µM
[23] = second compound 1 µM, first compound 3.16 µM
[24] = second compound 1 µM, first compound 10 µM
[25] = second compound 3.16 µM, first compound 0.0316 µM
[26] = second compound 3.16 µM, first compound 0.1 µM
[27] = second compound 3.16 µM, first compound 0.316 µM
[28] = second compound 3.16 µM, first compound 1 µM
[29] = second compound 3.16 µM, first compound 3.16 µM
[30] = second compound 3.16 µM, first compound 10 µM
[31] = second compound 10 µM, first compound 0.0316 µM
[32] = second compound 10 µM, first compound 0.1 µM
[33] = second compound 10 µM, first compound 0.316 µM
[34] = second compound 10 µM, first compound 1 µM
[35] = second compound 10 µM, first compound 3.16 µM
[36] = second compound 10 µM, first compound 10 µM

With `CC1(O)CCCC1n1c(=O)c(C(F)F)cc2cnc(NC3CCN(S(C)(=O)=O)CC3)nc21` (stereo unspecified) + C#Cc1c(F)ccc2cc(O)cc(-c3ncc4c(N5CC6CCC(C5)N6)nc(OCC56CCCN5CC(F)C6)nc4c3F)c12 the IC50 (second compound 0.0316 µM) was 383 nM, the IC50 (second compound 0.1 µM) was 398 nM and the IC50 (second compound 0.316 µM) was 343 nM. The IC50 (second compound 1 µM) was 324 nM, the IC50 (second compound 3.16 µM) was 146 nM and the IC50 (second compound 10 µM) was under 31.6 nM. For the same molecule, the viability, T/C [1] was 87.9%, the viability, T/C [2] was 53.1% and the viability, T/C [3] was 43.3%. For the same molecule, the viability, T/C [4] was 40.5%, the viability, T/C [5] was 47.8% and the viability, T/C [6] was 0.9%. It also gave a viability, T/C [7] of 91.3%, a viability, T/C [8] of 52.2% and a viability, T/C [9] of 45.3%. The viability, T/C [10] was 48.8%, the viability, T/C [11] was 35.7% and the viability, T/C [12] was 1.45%. For the same molecule, the viability, T/C [13] was 91.4%, the viability, T/C [14] was 50.7% and the viability, T/C [15] was 38%. It also gave a viability, T/C [16] of 42%, a viability, T/C [17] of 42.2% and a viability, T/C [18] of 1.44%. For the same molecule, the viability, T/C [19] was 84.7%, the viability, T/C [20] was 53.6% and the viability, T/C [21] was 37.2%. It also gave a viability, T/C [22] of 45.2%, a viability, T/C [23] of 40% and a viability, T/C [24] of 3.73%. For the same molecule, the viability, T/C [25] was 66.6%, the viability, T/C [26] was 47.9% and the viability, T/C [27] was 34%. For the same molecule, the viability, T/C [28] was 41.4%, the viability, T/C [29] was 27.6% and the viability, T/C [30] was 1.45%. The viability, T/C [31] was 42%, the viability, T/C [32] was 37.3% and the viability, T/C [33] was 27.8%. It also gave a viability, T/C [34] of 29.4%, a viability, T/C [35] of 32.5% and a viability, T/C [36] of 1.15%.
With `CCC(CC)c1cc(NC2CCC(N)C2)n2nccc2n1` (stereo unspecified) + C#Cc1c(F)ccc2cc(O)cc(-c3ncc4c(N5CC6CCC(C5)N6)nc(OCC56CCCN5CC(F)C6)nc4c3F)c12 the IC50 (second compound 0.0316 µM) was 1650 nM, the IC50 (second compound 0.1 µM) was 1860 nM and the IC50 (second compound 0.316 µM) was 1800 nM. It also gave an IC50 (second compound 1 µM) of 1750 nM, an IC50 (second compound 3.16 µM) of 1540 nM and an IC50 (second compound 10 µM) of 1120 nM. It also gave a viability, T/C [1] of 108%, a viability, T/C [2] of 111% and a viability, T/C [3] of 107%. For the same molecule, the viability, T/C [4] was 88.2%, the viability, T/C [5] was 0.7% and the viability, T/C [6] was 0.37%. It also gave a viability, T/C [7] of 112%, a viability, T/C [8] of 115% and a viability, T/C [9] of 118%. For the same molecule, the viability, T/C [10] was 107%, the viability, T/C [11] was 1.36% and the viability, T/C [12] was 1.21%. The viability, T/C [13] was 122%, the viability, T/C [14] was 105% and the viability, T/C [15] was 111%. For the same molecule, the viability, T/C [16] was 101%, the viability, T/C [17] was 0.69% and the viability, T/C [18] was 0.93%. It also gave a viability, T/C [19] of 108%, a viability, T/C [20] of 104% and a viability, T/C [21] of 99.9%. The viability, T/C [22] was 96.7%, the viability, T/C [23] was 0.48% and the viability, T/C [24] was 0.25%. It also gave a viability, T/C [25] of 83.7%, a viability, T/C [26] of 90.8% and a viability, T/C [27] of 88.3%. It also gave a viability, T/C [28] of 79.5%, a viability, T/C [29] of 0.74% and a viability, T/C [30] of 1.33%. It also gave a viability, T/C [31] of 48.1%, a viability, T/C [32] of 47.3% and a viability, T/C [33] of 56%. For the same molecule, the viability, T/C [34] was 70.2%, the viability, T/C [35] was 0.95% and the viability, T/C [36] was 0.56%.
`CCN1CCN(Cc2ccc(Nc3ncc(F)c(-c4cc(F)c5nc(C)n(C(C)C)c5c4)n3)nc2)CC1` + C#Cc1c(F)ccc2cc(O)cc(-c3ncc4c(N5CC6CCC(C5)N6)nc(OCC56CCCN5CC(F)C6)nc4c3F)c12 was tested, and the IC50 (second compound 0.0316 µM) was over 1000 nM, the IC50 (second compound 0.1 µM) was over 1000 nM and the IC50 (second compound 0.316 µM) was over 1000 nM. It also gave an IC50 (second compound 1 µM) of over 1000 nM, an IC50 (second compound 3.16 µM) of over 1000 nM and an IC50 (second compound 10 µM) of under 3.16 nM. It also gave a viability, T/C (second compound 0.0316 µM, first compound 0.00316 µM) of 119%, a viability, T/C (second compound 0.0316 µM, first compound 0.01 µM) of 105% and a viability, T/C [1] of 101%. It also gave a viability, T/C [2] of 90.6%, a viability, T/C [3] of 95.8% and a viability, T/C [4] of 88.1%. The viability, T/C (second compound 0.1 µM, first compound 0.00316 µM) was 111%, the viability, T/C (second compound 0.1 µM, first compound 0.01 µM) was 103% and the viability, T/C [7] was 89.8%. For the same molecule, the viability, T/C [8] was 91.6%, the viability, T/C [9] was 89.3% and the viability, T/C [10] was 66.2%. It also gave a viability, T/C (second compound 0.316 µM, first compound 0.00316 µM) of 109%, a viability, T/C (second compound 0.316 µM, first compound 0.01 µM) of 102% and a viability, T/C [13] of 96.3%. It also gave a viability, T/C [14] of 86%, a viability, T/C [15] of 90.2% and a viability, T/C [16] of 81.2%. For the same molecule, the viability, T/C (second compound 1 µM, first compound 0.00316 µM) was 106%, the viability, T/C (second compound 1 µM, first compound 0.01 µM) was 99.6% and the viability, T/C [19] was 90.7%. For the same molecule, the viability, T/C [20] was 82.3%, the viability, T/C [21] was 83.2% and the viability, T/C [22] was 67.7%. The viability, T/C (second compound 3.16 µM, first compound 0.00316 µM) was 84.5%, the viability, T/C (second compound 3.16 µM, first compound 0.01 µM) was 76% and the viability, T/C [25] was 69%. It also gave a viability, T/C [26] of 57.9%, a viability, T/C [27] of 62.5% and a viability, T/C [28] of 57.7%. It also gave a viability, T/C (second compound 10 µM, first compound 0.00316 µM) of 46.4%, a viability, T/C (second compound 10 µM, first compound 0.01 µM) of 48.3% and a viability, T/C [31] of 38.3%. For the same molecule, the viability, T/C [32] was 45.7%, the viability, T/C [33] was 45.2% and the viability, T/C [34] was 42.5%.
